Test results taken from publication PMC9413491, “A Novel and Cross-Species Active Mammalian INDY (NaCT) Inhibitor Ameliorates Hepatic Steatosis in Mice with Diet-Induced Obesity” (Metabolites, 2022).
Like-named read-outs stand apart in the source and are kept apart here.

Experiments:
[1] = system: fatty acid synthesis in HepG2 cells; assay: Fatty acid synthesis assay ([14C] citrate incorporation) in HepG2 cells; format: cell-based, human
Experimental: We performed the fatty acid synthesis assay in HepG2 cells. We seeded cells into black clear-bottom 96-well plates (Corning 3340 cell plate) 75,000/well and incubated at 37 °C. After 16–24 h, we washed the plates once with 100 µL PBS (+CaCl2 +MgCl2) and added 50 µL assay medium ([…] containing 11 mM glucose, 10 mM HEPES, and 1 nM insulin) per well. Then, we applied test substances in assay medium (10 µL, 5% DMSO) and incubated for 20 min at 37 °C. Thereafter, we added 10 µL assay medium containing [14C] citrate (final concentration 50 µM) and PrestoBlue reagent (1× final concentration; Thermo Fisher Scientific, Waltham, MA, USA) and incubated for 180 min (37 °C, 5% CO2). We measured cell viability (ViewLux instrument, Perkin Elmer). We removed medium by vacuum aspiration and washed cells once with 100 µL PBS (+CaCl2 +MgCl2). We lysed cells with 50 µL lysis buffer (0.1 N NaOH, 0.1 % Triton X-100) and sealed plates with Tape Pads and vortexed. For the saponification reaction, we incubated plates for 16–24 h at 70 °C in a humidified environment. Then, we removed seals and added 200 µL 0.1 N HCl to neutralise the pH. We transferred 150 µL from each into corresponding wells of a 96-well Flash plate (Perkin Elmer) and sealed with TopSeal A (Perkin Elmer). We incubated plates for 4 h at 70 °C and for at least 3 h at room temperature in the dark. We measured [14C] radioactivity (microbeta2, Perkin Elmer). For control samples, we applied 50 mM unlabelled citrate or C75 (Sigma-Aldrich, St. Louis, MO, USA, C5490).

[2] = target: T1, human NaCT (Homo sapiens, UniProt Q86YT5); assay: [14C] citrate uptake in HepG2 cells endogenously expressing human NaCT; format: cell-based; conditions: HepG2, human NaCT, citrate substrate
T1 construct: citrate uptake into HepG2 cells, which endogenously expressed NaCT; host or cells: HepG2
T1 sequence (Q86YT5 whole entry): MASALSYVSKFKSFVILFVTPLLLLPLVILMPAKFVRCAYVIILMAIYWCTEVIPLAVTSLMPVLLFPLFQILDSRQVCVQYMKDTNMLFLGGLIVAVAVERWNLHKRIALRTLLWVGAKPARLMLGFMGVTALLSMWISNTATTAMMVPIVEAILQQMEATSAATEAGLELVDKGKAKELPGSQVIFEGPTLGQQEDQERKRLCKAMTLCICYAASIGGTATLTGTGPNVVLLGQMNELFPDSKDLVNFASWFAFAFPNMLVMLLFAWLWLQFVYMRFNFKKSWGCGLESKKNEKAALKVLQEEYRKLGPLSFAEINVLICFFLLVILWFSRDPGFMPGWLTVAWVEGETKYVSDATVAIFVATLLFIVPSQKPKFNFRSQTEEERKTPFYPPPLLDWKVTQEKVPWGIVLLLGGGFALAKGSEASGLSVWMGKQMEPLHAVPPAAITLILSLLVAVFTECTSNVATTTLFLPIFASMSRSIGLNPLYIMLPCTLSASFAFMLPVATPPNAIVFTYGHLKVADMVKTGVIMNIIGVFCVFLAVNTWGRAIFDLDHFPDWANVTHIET
Text: (§1) We determined activity on human NaCT by measuring citrate uptake into HepG2 cells, which endogenously expressed NaCT [37] and for mouse Nact, using HEK293 cells recombinantly expressing mouse Nact (HEK-Nact). We cloned the mouse Slc13a5 cDNA encoding Nact as described previously.
(§2) For radiometric [14C] citrate uptake assays, we used Cytostar-T plates (Perkin Elmer#RPNQ0166, Waltham, MA, USA). For each assay, we seeded 20,000 HepG2 cells per well on collagen coated 384-well Cytostar-T plates or 5000 HEK293 cells per well on ploy-D-lysine coated 384-well Cytostar-T plates. On the following day, we changed culture medium to assay buffer: 120 mM NaCl, 5.4 mM KCl, 0.8 mM MgSO4, 5 mM glucose, 1.8 mM CaCl2, 25 mM Hepes, 25 mM MES, pH 6.5 (human) and pH 7.5 (mouse). We preincubated cells with compounds at 37 °C for 20 min, after which we added [14C] citrate (3 µM for HEK cells and 10 µM for HepG2 cells) and incubated cells for 50 min at 37 °C. After cooling down for 15 min at 4 °C, we measured the counts using a Microbeta2 reader system (Perkin Elmer).

[3] = target: T2, mouse Nact (Mus musculus, UniProt Q67BT3); assay: [14C] citrate uptake in HEK293 cells recombinantly expressing mouse Nact; format: cell-based; conditions: HEK293 mouse Nact
T2 construct: expressed in transfected cells; host or cells: HEK293 (DSMZ), stably transfected, G418 selection
T2 sequence (Q67BT3 1-572): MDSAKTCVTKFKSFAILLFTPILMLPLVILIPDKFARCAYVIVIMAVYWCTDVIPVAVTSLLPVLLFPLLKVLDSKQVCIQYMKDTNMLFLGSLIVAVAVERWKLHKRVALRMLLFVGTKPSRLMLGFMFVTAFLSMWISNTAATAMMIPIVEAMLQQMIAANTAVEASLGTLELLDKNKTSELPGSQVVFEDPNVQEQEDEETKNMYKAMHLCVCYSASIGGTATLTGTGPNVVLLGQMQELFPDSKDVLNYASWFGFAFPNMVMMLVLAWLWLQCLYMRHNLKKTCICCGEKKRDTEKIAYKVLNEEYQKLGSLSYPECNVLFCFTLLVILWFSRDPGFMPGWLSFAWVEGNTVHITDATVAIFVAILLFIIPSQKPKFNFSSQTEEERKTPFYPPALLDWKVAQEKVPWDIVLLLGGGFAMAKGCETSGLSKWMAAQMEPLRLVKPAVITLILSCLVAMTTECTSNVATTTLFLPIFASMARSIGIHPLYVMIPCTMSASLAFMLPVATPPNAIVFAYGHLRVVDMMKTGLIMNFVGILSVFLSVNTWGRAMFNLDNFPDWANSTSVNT
Text: as §1, §2

Row | IC50 ([1]; HepG2, [14C] citrate incorporation, read-out: IC50 fatty acid synthesis, HepG2) [nM] | IC50 [2] [nM] | IC50 ([1]; HepG2, read-out: IC50 HepG2 fatty acid synthesis) [nM] | Effect on citrate uptake for mouse Nact [3] | IC50 ([3]; read-out: IC50 HEK293 citrate uptake (mouse)) [nM] | Compound
1 | 39000 |  |  |  |  | CC(C)(C)c1ccc(CC[C@@](O)(CC(=O)O)C(=O)O)cc1 [PF-06649298, reference compound]
2 |  | 78 | 30 | no effects | > 50000 | O=C(NCc1ccc(F)cc1)C1CCN(S(=O)(=O)c2cc(Cl)cc(Cl)c2)CC1 [BI01383298, reference compound]
